# Assay results from paper PMC7996082, “The translocator protein ligands as mitochondrial functional modulators for the potential anti-Alzheimer agents” (Journal of Enzyme Inhibition and Medicinal Chemistry, 2021).
# Read-outs that look alike come from different tables or passages of the source.
# Tests used:
# TSPO = conditions: cited from earlier work
# [1] = MTT assay: HT22 cell viability with compound alone; type: cell-based, mouse; conditions: mouse, HT22 cells; HT22 cell viability after 24 h of treatment with 5 μM compound, no Aβ
# Method: (§1) To a clear 96-well plate (FALCON), the cultured HT-22 cells were seeded in a number of 5,000 per well 24 h prior to the assay. A solution of each test compound (5 µM, 25 µL) was added to each well. After 24 h of incubation at 37 °C, the cells were treated with a 10 µL of MTT solution (3–(4,5-dimethylthiazol-2-yl)-2,5-diphenyltetrazolium bromide, Sigma-Aldrich), incubated for 2 h at 37 °C, and were treated with 135 µL of MTT solubilising solution (10% Triton-X 100 in isopropanol with 0.1 M HCl) for 2 h at 37 °C. The % values of cell viability were determined by using the optical density (OD) values at 560 nm, and normalised by taking the vehicle control (5 µM of DMSO) as […].
# [2] = test system: HT22 cells treated with Aβ; assay: Cellular ROS assay (DCFDA): inhibition of Aβ-induced ROS generation; type: cell-based, mouse; conditions: for inhibition at 5 µM: Mus musculus, HT-22, 5 μM compound; for ROS Inhibition (%): 5 μM compound
# Method: Among 56 compounds, 23 compounds were selected and further tested for the luciferase-based ATP assay. […] Thus, we chose these two compounds and further evaluated their biological activity by measuring cell viability and reactive oxygen species (ROS) production. The effects on cell viability of each compound under Aβ-induced cytotoxicity were determined by measuring the metabolic activity of NAD(P)H-dependent cellular oxidoreductases using the 3–(4,5-dimethylthiazol-2-yl)-2,5-diphenyl-tetrazolium bromide (MTT) dye. To measure cellular ROS levels, we used a fluorescence indicator, 2′,7′-dichlorofluorescein diacetate (DCFDA), and calculated the percent inhibition of ROS generation by applying the same method used for MTT assays. Compound 7 inhibited Aβ-induced ROS generation (97% at 5 µM) almost to the level of the untreated control (Table 1). […] On the basis of the in vitro activity, we selected compound 7 as the best hit from the initial screening library.
# HT22 cells = assay: MTT assay: HT22 cell viability with compound alone; type: cell-based, mouse; conditions: HT22 cell viability after 24 h of treatment with 5 μM compound, no Aβ
# Method: as §1
# [3] = test system: transgenic AD model mice (APPswe/PSEN1dE9); assay: Y-maze spontaneous alternation test in transgenic AD model mice; type: in vivo, mouse; conditions: Tg APPswe/PSEN1dE9 mice, 30 mg/kg daily, 1 month, PO
# [4] = test system: acute AD model mice (Aβ1-42 ICV injected ICR mice); assay: Y-maze spontaneous alternation test in acute AD model mice; type: in vivo, mouse; conditions: 30 mg/kg daily, 6 days, i.p.
# Method: (§2) The acute AD mice model was prepared by administration of Aβ1-42 solution (10% DMSO/90% PBS) to male ICR mice (6 weeks old, 30 − 33 g) via intracerebroventricular (ICV) injection (Aβ1-42 dose: 500 pmol/mouse) as described previously. The wild type mice (B6C3F1) and double APP/PS1 transgenic mice (Tg AD mice model; APPswe/PSEN1dE9) were purchased from Jackson Laboratory (Bar Harbour, ME, USA). The Tg AD model mice were 11 months old at the beginning of the behaviour test, and were housed for 1 month in a room under controlled temperature and fed ad libitum. The behaviour tests were conducted during daytime in air-controlled and soundproof experiment room. The animal experiments were abided by the guidelines of the Institutional Animal Care and Use Committee of Korea Institute of Science and Technology.
# To the mice of the acute AD model (n = 7 per group), each test compound (test compound in 20% cyclodextrin, 30 mg/kg) was […] injected daily for 6 days. The Y-maze spontaneous alternation test was performed 1 day after the administration of each test compound. The Y maze was made of three equally spaced black plastic arms (40 L × 10 W × 12 H cm) positioned at an equal angle. Each mouse was placed at the end of one arm and allowed to move freely through the maze for 8 min, and the sequence of arm entries was recorded. The arm entry of the mouse was counted when the all four limbs were within an arm. A set of entries into all three arms is considered as a spontaneous alternation. The spontaneous alternation (%) was calculated by the following equation: Spontaneous alternation (%)=100x[number of alternations/(total number of arm entries – 2)]
# We evaluated in vivo activity of 7 and 14 in an acute AD mouse model. The acute AD model mice were generated by the administration of Aβ1-42 peptide (500 pmol) according to the previously reported method, and each compound (30 mg/kg daily) was administered intraperitoneally for 6 days. Piracetam (30 mg/kg daily) was also administered in parallel for comparison. The Y-maze spontaneous alternation tests were performed to measure the recovery of learning and memory deficit in acute AD model mice[38]^,[39]. […] We believe that the treatment of 7 was beneficial for ameliorating Aβ-induced cognitive impairments.
# [5] = test system: transgenic AD model mice (APPswe/PSEN1dE9); assay: Contextual fear conditioning test in transgenic AD model mice; type: in vivo, mouse; conditions: Tg AD model mice, 30 mg/kg daily, 1 month, PO; 30 mg/kg
# Method: as §2
# To the Tg mice of the AD model (n = 7 per group), each test compound (30 mg/kg) was orally administrated daily for 1 month. […] Freezing response was measured by the fear conditioning system without application of CS or US.
# In addition, we assessed recovery effects of compound 7 by performing contextual fear conditioning tests.[40] Healthy mice show higher number of total freezing, which is an index of fear learning and memory of rodents; therefore, the number of total freezing responses under fear-relevant stimuli was measured with the compound-treated Tg AD model mice. […]
# [6] = test system: HT-22 (mouse hippocampal cells) cells treated with Aβ; assay: JC-1 assay: recovery of mitochondrial membrane potential (ΔΨm) after Aβ; type: cell-based; conditions: 5 μM compound, 5 μM Aβ, HT22 cells; 0% = Aβ-induced damaged condition, 100% = normal condition
# Method: Thirty thousand HT-22 cells per well were seeded into a clear 96-well plate (FALCON) at 200 µL per well one day prior to assay. 750 mM of JC-1 (Stratagene) in DMSO stock solution was dissolved into phenol red-free Opti-MEM (GIBCO) medium to make final concentration of 7.5 mM JC-1 per well. Medium was removed from the plate, and 100 µL per well of JC-1 was added. The sample plates were incubated for 1 h and 15 min at 37 °C and washed twice with 100 µL per well of PBS. Subsequently, cells were treated with a 25 µL solution of each compound at 10 µM in Opti-MEM and incubated at 37 °C for 10 min followed by addition of a 25 µL of Aβ (American peptide, 1-42) solution at 10 µM. Fluorescence was measured at every one hour for three hours at ex/em 530 nm/580 nm (“red”) and ex/em 485 nm/530 nm (“green”) by using the Flexstation® 3 (Molecular Devices, USA) reader. The ratio of green to red fluorescence was calculated and normalised by taking the percent changes using vehicle control as 100%.
# The selected 56 compounds were purchased and tested by in vitro cell-based assays. Four different cell-based assays (JC-1, MTT, ATP production, and cellular ROS assays) were carried out sequentially. First, the JC-1 assay was performed to screen all 56 compounds, VH001–VH056 (Supplementary Table S1). Since mitochondrial membrane depolarisation is one of the distinct signs of mPTP opening, the mitochondrial uptake of a fluorescent JC-1 dye (5,59,6,69-tetrachloro-1,19,3,39-tetraethylbenzimidazolocarbocyanine iodide) was measured to evaluate the effects of each compound on the mitochondrial membrane potential (ΔΨm). HT22 cells, a mouse hippocampal cell line, were treated with 5 µM of Aβ, incubated with each compound at the same concentration of 5 µM, and subsequently treated with JC-1. On the basis of changes in the red/green fluorescence intensity ratio between the cells treated with Aβ and control, the percent recovery of ΔΨm for each compound was calculated and normalised to the ΔΨm of healthy cells as 100%.
# Compd Structure ∆Ψm at 5 Compd Structure ∆Ψm at 5 […]
# a After the treatment of each compound (5 μM) and Aβ (5 μM) in HT22 cell, the increase of fluorescence ratio (green/red) was measured and normalized by taking the change of the ratio between 0% (Aβ-induced damaged condition) and 100% (normal condition in the absence of Aβ).
smiles,measurement,setting,value
"CCCCCCN(CCCCCC)C(=O)Cc1c(-c2ccc(F)cc2)[nH]c2ccccc12 [Compound 1, 2–(2-(4-fluorophenyl)-1H-indol-3-yl)-N,N-dihexylacetamide]",Ki,TSPO; TSPO binding affinity ref 29,3.25 nM
"CCCCN(CCCC)C(=O)Cc1c(-c2ccc(Cl)cc2)nc2c(Cl)cc(Cl)cn12 [Compound 2, N,N-dibutyl-2–(6,8-dichloro-2–(4-chloro-phenyl)imidazo[1,2-a]pyridin-3-yl)acetamide]",Ki,TSPO; TSPO binding affinity ref 30,2.68 nM
"CC(=O)N(Cc1ccccc1OC(C)C)c1ccc(Cl)cc1Oc1ccccc1 [Compound 3, N-(4-chloro-2-phenoxyphenyl)-N-(2-isopropoxybenzyl)acetamide]",IC50,TSPO; TSPO binding affinity ref 31,0.92 nM
"COc1ccc(OC)c(CN(C(C)=O)c2cc(F)ccc2Oc2ccccc2)c1 [Compound 4, N-(2,5-dimethoxybenzyl)-N-(5-fluoro-2-phenoxyphenyl)acetamide]",IC50,TSPO; TSPO binding affinity ref 31,1.6 nM
"CN1C(=O)CN=C(c2ccc(Cl)cc2)c2cc(Cl)ccc21 [Compound 5, 7-chloro-5–(4-chlorophenyl)-1-methyl-1,3-dihydro-2H-benzo[e][1,4]diazepin-2-one]",Ki,TSPO; TSPO binding affinity ref 32,1.02 nM
COc1ccc(CNC(=O)C(c2cccnc2)N(C(=O)c2csnn2)c2ccc(C(C)(C)C)cc2)cc1 (stereo not shown) [Compound 8],"viability at 24 h, 5 µM",[1],34%
same,inhibition at 5 µM,[2],-10%
CCOc1ccc(-n2c(SC)nc3sc4c(c3c2=O)CCN(C(C)=O)C4)cc1 [Compound 10],MTT Viability (%),HT22 cells,87%
same,ROS Inhibition (%),[2],−177%
CCOc1ccc(-n2c(SCC(C)C)nc3sc4c(c3c2=O)CCN(C(C)=O)C4)cc1 [Compound 11],ROS Inhibition (%),[2],−234%
"NC(=O)CN1CCCC1=O [Piracetam, piracetam, reference compound]","viability at 24 h, 5 µM",[1],132%
same,Recovery of Y-maze spontaneous alternations,[3],33%
same,Recovery of Y-maze spontaneous alternations,[4],20%
same,inhibition at 5 µM,[2],129%
same,Contextual fear conditioning: percent recovery of freezing,[5],−2%
CCOc1ccc(-c2cc(C(=O)NCc3cccc(OC)c3)c3ccccc3n2)cc1 [VH025],Recovery of ΔΨm (%),[6],12%
CCN(CCNC(=O)c1cc(-c2cccnc2)nc2ccccc12)c1ccccc1 [VH026],Recovery of ΔΨm (%),[6],49%
CC(C)CN(CCCNC(=O)c1cc(Nc2ccccc2)nc2ccccc12)CC(C)C [VH027],Recovery of ΔΨm (%),[6],25%
COc1ccc(CNC(=O)c2cc(OCc3ccc(C)cc3)nc3ccccc23)c(OC)c1 [VH028],Recovery of ΔΨm (%),[6],51%
CCc1ccc(Nc2cc(C(=O)NCCc3cccc(C)c3)c3ccccc3n2)cc1 [VH029],Recovery of ΔΨm (%),[6],18%
CCOc1ccc(-c2cc(C(=O)NCC(C)CN(CC)CC)c3ccccc3n2)cc1 (stereo not shown) [VH030],Recovery of ΔΨm (%),[6],60%
